{"source": "patent US20190083638A1", "about": "“NICLOSAMIDE-CONJUGATED POLYPEPTIDE NANOPARTICLES” (priority 2017, published 2019)", "key": {"[1]": {"experiment": "Pilot study, LD50 of NIC formulated in DMA/PEG 400", "parameters": "species or system nude mice", "conditions": "nude, mouse, in vivo"}, "[2]": {"test_system": "HCT116 human colon carcinoma cells", "experiment": "In vitro cell proliferation (MTS assay)", "format": "cell-based", "conditions": "HCT-116, read-out: IC50, concentration of NIC (or NIC equivalent) to inhibit proliferation of cells by 50%, HCT116, 72 hours of exposure", "quoted_text": "HCT116 human colon carcinoma cells were purchased from American Type Culture Collection (Manassas, Va., USA) and maintained in McCoy's 5A medium supplemented with 10% fetal bovine serum (FBS, Atlanta Biologicals, Lawrenceville, Ga., USA), 200 U/ml penicillin, and 50 ng/ml streptomycin (Invitrogen, Grand island, NY, USA). Cells were grown at 37° C. in 5% CO2. The cells were plated at 5,000 cells per well into 96 well plates and treated with compounds (n=3) for 48 hours, at which point the cell proliferation was measured using the colorimetric MTS assay (Promega, Madison, Wis., USA). Values were normalized as a percentage of DMSO treated cells. The dose response data were fit with sigmoidal dose-response using Graphpad Prism."}, "[3]": {"conditions": "free drug solution at 200 mg/kg BW; cited from earlier work"}, "[4]": {"test_system": "tumor cell lines from multiple tumor types", "conditions": "breast, lung, prostate, ovary, blood, pancreas, colon tumor cell lines; read-out: IC50 range, inhibition of proliferation of tumor cell lines; cited from earlier work"}, "[5]": {"test_system": "HCT-116 tumors", "experiment": "Tumor inhibition in HCT-116 cell xenograft model", "format": "in vivo, male nude mice", "conditions": "i.v. every third day for two weeks, NIC 5 mg/kg, CP—NIC 20 mg/kg NIC-equivalent, n=8", "experimental": "Prior to in vivo implantation, HCT116 cells were washed twice in Minimum Essential Media (MEM) (51200-038; Invitrogen; Carlsbad, Calif.). HCT116 cells were implanted in the right flank of male nude mice by subcutaneous injection of 1-2×10^6 cells in 50 μL. All animals were treated in accordance with National Institute of Health Guide for the Care and Use of Laboratory Animals under protocols approved by the Duke University Institutional Animal Care and Use Committee.\n(§1) Controls or drugs were administered by tail vein infusion (50 μL/min) of 500 μL. […] Tumor dimensions and BW were measured 3-4 times a week, and the tumor volume was calculated according to Volume [mm^3]=length×width×depth×½.\n(§2) Mice were monitored for BW loss, and euthanized upon exceeding 15% loss in BW or if their tumors grew to a volume greater than 1000 mm3. The maximum tolerated dose (MTD) was determined in mice with tumors. Cumulative survival curves were compared using Kaplan-Meier analysis, and the Sidak test, Tukey Test and Wilcoxon test were calculated using GraphPad Prism 6 software.\nBody-weight loss was also measured throughout the treatment of free NIC and CP—NIC conjugate. All treatments were tolerated for the period of the study (FIG. 11). […] It was hypothesized that the mechanism of action of NIC released from nanoparticles in this study is the same as free NIC as previously characterized."}, "[6]": {"experiment": "in vivo", "conditions": "iv", "experimental": "Blood samples were obtained 0.5 h prior to dosing and at 0.08, 0.17, 0.33, 0.67, 1.5, 4, 8, 12, 24 hours after drug administration (n=4 per time point).\nBlood samples were obtained at 0.5 h prior to the dosing and at 0.08, 0.17, 0.33, 0.67, 1.5, 4, 8, 12, and 24 h after drug administration."}, "[7]": {"experiment": "Dose escalation / tolerability in mice bearing subcutaneous HCT116 tumors", "conditions": "male, nude, mouse, in vivo, intravenous, 5 mg/kg BW; mice with tumors, 3 days/week for 2 weeks, tail vein infusion; read-out: maximum tolerated dose", "experimental": "as §1, §2"}, "[8]": {"test_system": "Wnt/β-catenin signaling in HCT-116 cells", "experiment": "Western blot of Wnt signaling (cytosolic β-catenin, c-myc, cyclin D1)", "format": "cell-based, human", "conditions": "HCT116, western blotting", "experimental": "Western blots were performed following a procedure similar to that reported previously (Osada et al., Cancer Res., 2011, 71, 4172-4182). […] After treatment, the cytosolic fraction was isolated as previously described (Chen et al., Biochemistry, 2009, 48, 10267-10274). Immunoblot was used to detect the 3-catenin, c-myc and cyclin D1 protein levels in cytosol, with β-actin immunoblots used for loading control.\nWnt signaling activity was quantified as cytosolic β-catenin level by Western blot."}}, "data": [{"smiles": "O=C(Nc1ccc([N+](=O)[O-])cc1Cl)c1cc(Cl)ccc1O", "note": "[NIC, Niclosamide]", "values": [{"measurement": "LD50", "setting": "[1]", "result": 5, "unit": "mg/kg"}, {"measurement": "IC50", "setting": "[2]", "result": 0.85, "unit": "µM"}, {"measurement": "time plasma levels of NIC were above the IC50 for Wnt inhibition", "setting": "[3]", "result": "less than 1 h"}, {"measurement": "IC50", "setting": "[4]", "result": "0.13 to 4", "unit": "µM"}, {"measurement": "median survival time", "setting": "[5]; Kaplan-Meier", "result": 16, "unit": "days"}, {"measurement": "mean tumor volume", "setting": "[5]; ten days after start of treatment", "result": 661, "unit": "mm3"}, {"measurement": "% AUC-inf extrapolated (AUC-last/AUC-inf) * 100", "setting": "[6]; CD1, mouse", "result": "0.33 ± 0.45", "unit": "%"}, {"measurement": "MRT inf", "setting": "[6]; CD1, mouse", "result": "54 ± 28.8", "unit": "min"}, {"measurement": "MRT last", "setting": "[6]; CD1, mouse", "result": "54 ± 26.4", "unit": "min"}, {"measurement": "Tmax", "setting": "[6]; CD1, mouse", "result": "12 ± 10.2", "unit": "min"}, {"measurement": "half-life", "setting": "[6]; CD1, mouse", "result": "60 ± 13.2", "unit": "min"}, {"measurement": "Cmax", "setting": "[6]; CD1, mouse, 128 mg/kg", "result": "6200 ± 4230", "unit": "ng/mL"}, {"measurement": "Vss (=CL × MRT; overall distrib. Volume at steay state)", "setting": "[6]; mouse", "result": "0.7 ± 0.28 L (per kg BW)"}, {"measurement": "MTD at 2 weeks", "setting": "[7]", "result": 5, "unit": "mg/kg"}, {"measurement": "levels of Wnt target proteins c-myc and cyclin D1", "setting": "[8]", "result": "similarly reduced"}]}]}
